Reference: patent US20250074891A1 (Anaxis Pharma Pty Ltd., priority 2021, published 2025)

Assays:
Settings in all cases: Table 35
RIP1 = RIP1 (Homo sapiens (Human), UniProt Q13546); assay: KINOMEscan binding assay, RIP1
MLKL (full length) = MLKL (full length) (Homo sapiens (Human), UniProt Q8NB16); assay: KINOMEscan binding assay, MLKL (full length)
Procedure: (§1) Kinase assays. For most assays, kinase-tagged T7 phage strains were grown in parallel in 24-well blocks in an E. coli host derived from the BL21 strain. E. coli were grown to log-phase and infected with T7 phage from a frozen stock (multiplicity of infection=0.4) and incubated with shaking at 32° C. until lysis (90-150 minutes).
(§2) The Hill Slope was set to −1.

RIP3 = RIP3 (Homo sapiens (Human), UniProt Q9Y572); assay: KINOMEscan binding assay, RIP3
Chain of RIP3 (Q9Y572 whole entry): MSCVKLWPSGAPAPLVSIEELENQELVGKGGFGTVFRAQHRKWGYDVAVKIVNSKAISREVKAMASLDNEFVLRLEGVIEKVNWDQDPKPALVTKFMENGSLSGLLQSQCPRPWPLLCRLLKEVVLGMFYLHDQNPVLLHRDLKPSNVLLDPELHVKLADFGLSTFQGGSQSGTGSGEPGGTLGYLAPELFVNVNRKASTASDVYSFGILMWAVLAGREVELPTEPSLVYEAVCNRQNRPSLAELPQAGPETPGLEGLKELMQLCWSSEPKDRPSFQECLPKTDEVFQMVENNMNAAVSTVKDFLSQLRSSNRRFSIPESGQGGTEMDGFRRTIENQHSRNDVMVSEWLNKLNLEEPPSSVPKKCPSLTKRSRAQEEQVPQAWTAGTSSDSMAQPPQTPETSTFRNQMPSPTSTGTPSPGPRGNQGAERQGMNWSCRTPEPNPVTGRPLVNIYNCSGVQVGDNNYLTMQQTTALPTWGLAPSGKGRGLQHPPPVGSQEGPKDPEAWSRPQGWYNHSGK
Procedure: as §1, §2

Chain of RIP1 (Q13546 whole entry): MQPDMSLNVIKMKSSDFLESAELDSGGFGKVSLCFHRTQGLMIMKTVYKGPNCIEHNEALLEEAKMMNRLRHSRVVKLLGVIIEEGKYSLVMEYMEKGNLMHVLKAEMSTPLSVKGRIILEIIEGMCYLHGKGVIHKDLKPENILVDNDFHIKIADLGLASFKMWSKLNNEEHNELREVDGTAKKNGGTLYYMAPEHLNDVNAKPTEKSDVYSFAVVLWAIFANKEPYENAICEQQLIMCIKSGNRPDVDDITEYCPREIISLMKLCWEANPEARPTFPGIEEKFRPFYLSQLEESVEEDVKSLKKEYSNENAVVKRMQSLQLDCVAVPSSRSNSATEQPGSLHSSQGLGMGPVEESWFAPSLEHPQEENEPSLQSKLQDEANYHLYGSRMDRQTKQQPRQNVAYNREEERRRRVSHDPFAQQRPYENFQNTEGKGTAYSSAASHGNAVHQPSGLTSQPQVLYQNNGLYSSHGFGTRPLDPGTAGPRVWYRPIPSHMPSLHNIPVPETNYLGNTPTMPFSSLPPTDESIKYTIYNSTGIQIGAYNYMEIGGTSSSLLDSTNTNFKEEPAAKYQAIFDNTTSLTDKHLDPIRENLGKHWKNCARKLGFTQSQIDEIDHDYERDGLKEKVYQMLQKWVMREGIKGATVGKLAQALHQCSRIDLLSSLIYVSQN
Chain of MLKL (full length) (Q8NB16 whole entry): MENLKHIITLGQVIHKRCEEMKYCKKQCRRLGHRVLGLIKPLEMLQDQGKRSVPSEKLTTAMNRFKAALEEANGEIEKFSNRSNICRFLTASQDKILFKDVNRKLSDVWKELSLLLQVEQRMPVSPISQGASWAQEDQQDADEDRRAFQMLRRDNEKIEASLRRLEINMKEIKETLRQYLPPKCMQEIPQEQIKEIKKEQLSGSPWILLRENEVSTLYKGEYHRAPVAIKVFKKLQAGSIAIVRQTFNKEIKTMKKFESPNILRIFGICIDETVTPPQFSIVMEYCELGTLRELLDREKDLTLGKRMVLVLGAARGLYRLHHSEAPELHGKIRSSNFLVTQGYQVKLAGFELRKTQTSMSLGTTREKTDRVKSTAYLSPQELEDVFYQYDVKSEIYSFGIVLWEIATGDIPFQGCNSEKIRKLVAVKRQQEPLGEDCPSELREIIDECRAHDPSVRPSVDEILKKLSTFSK

Structure (SMILES): NC(=O)c1c(-c2ccc(NS(=O)(=O)CC(F)(F)F)c(OCc3ccccn3)c2)n[nH]c1Nc1cnccn1 [Compound 227, 5-[(pyrazin-2-yl)amino]-3-{3-[(pyridin-2-yl)methoxy]-4-(2,2,2-trifluoroethanesulfonamido)phenyl}-1H-pyrazole-4-carboxamide]
- Kd (RIP1): > 30 µM
- Kd (MLKL (full length)): < 0.01 µM
- Kd (RIP3): > 30 µM

Structure (SMILES): CCS(=O)(=O)Nc1ccc(-c2n[nH]c(Nc3cnccn3)c2C(N)=O)cc1OC(C)(C)c1ccc(F)cc1 [Compound 228, 3-(4-ethanesulfonamido-3-{[2-(4-fluorophenyl)propan-2-yl]oxy}phenyl)-5-[(pyrazin-2-yl)amino]-1H-pyrazole-4-carboxamide]
- Kd (RIP1): > 30 µM
- Kd (MLKL (full length)): < 0.01 µM
- Kd (RIP3): > 30 µM

Structure (SMILES): C[C@H](Oc1cc(-c2n[nH]c(Nc3cccc(C(F)(F)F)n3)c2C(N)=O)ccc1NS(=O)(=O)C(F)F)c1ccc(F)cc1 [Compound 229, 3-[4-(difluoromethanesulfonamido)-3-[(1S)-1-(4-fluorophenyl)ethoxy]phenyl]-5-{[6-(trifluoromethyl)pyridin-2-yl]amino}-1H-pyrazole-4-carboxamide]
- Kd (RIP1): > 30 µM
- Kd (MLKL (full length)): < 0.01 µM
- Kd (RIP3): > 30 µM

Structure (SMILES): CCS(=O)(=O)Nc1ccc(-c2n[nH]c(Nc3cnccn3)c2C(N)=O)cc1O[C@@H](C)c1ccccn1 [Compound 230, 3-{4-ethanesulfonamido-3-[(1S)-1-(pyridin-2-yl)ethoxy]phenyl}-5-[(pyrazin-2-yl)amino]-1H-pyrazole-4-carboxamide]
- Kd (RIP1): > 30 µM
- Kd (MLKL (full length)): < 0.01 µM
- Kd (RIP3): > 30 µM

Structure (SMILES): NC(=O)c1c(-c2ccc(NS(=O)(=O)CC(F)(F)F)c(OCc3ccc(F)cn3)c2)n[nH]c1Nc1cnccn1 [Compound 231, 3-(3-((5-fluoropyridin-2-yl)methoxy)-4-((2,2,2-trifluoroethyl)sulfonamido)phenyl)-5-(pyrazin-2-ylamino)-1H-pyrazole-4-carboxamide]
- Kd (RIP1): > 30 µM
- Kd (MLKL (full length)): < 0.01 µM
- Kd (RIP3): > 30 µM

Structure (SMILES): CCS(=O)(=O)Nc1ccc(-c2n[nH]c(Nc3cnccn3)c2C(N)=O)cc1OC1CCCc2ccccc21 (stereo not drawn) [Compound 232, 3-[4-ethanesulfonamido-3-(1,2,3,4-tetrahydronaphthalen-1-yloxy)phenyl]-5-[(pyrazin-2-yl)amino]-1H-pyrazole-4-carboxamide]
- Kd (RIP1): > 30 µM
- Kd (MLKL (full length)): < 0.01 µM
- Kd (RIP3): > 30 µM

Structure (SMILES): NC(=O)c1c(-c2ccc(NS(=O)(=O)CC(F)(F)F)c(OCc3ccc(Cl)cc3)c2)n[nH]c1Nc1cnc(C(F)(F)F)cn1 [Compound 234, 3-{3-[(4-chlorophenyl)methoxy]-4-(2,2,2-trifluoroethanesulfonamido)phenyl}-5-{[5-(trifluoromethyl)pyrazin-2-yl]amino}-1H-pyrazole-4-carboxamide]
- Kd (RIP1): > 30 µM
- Kd (MLKL (full length)): < 0.01 µM
- Kd (RIP3): > 30 µM

Structure (SMILES): NC(=O)c1c(-c2ccc(NS(=O)(=O)C(F)F)c(OCc3ccc(Cl)cc3)c2)n[nH]c1Nc1cnc(C(F)(F)F)cn1 [Compound 235, 3-(3-((4-chlorobenzyl)oxy)-4-((difluoromethyl)sulfonamido)phenyl)-5-((5-(trifluoromethyl)pyrazin-2-yl)amino)-1H-pyrazole-4-carboxamide]
- Kd (RIP1): > 30 µM
- Kd (MLKL (full length)): < 0.01 µM
- Kd (RIP3): > 30 µM

Structure (SMILES): NC(=O)c1c(-c2ccc(NS(=O)(=O)C(F)F)c(OC(c3ccc(F)cc3)C3CCC3)c2)n[nH]c1Nc1cnccn1 (stereo not drawn) [Compound 236, 3-{3-[cyclobutyl(4-fluorophenyl)methoxy]-4-(difluoromethanesulfonamido)phenyl}-5-[(pyrazin-2-yl)amino]-1H-pyrazole-4-carboxamide]
- Kd (RIP1): > 30 µM
- Kd (MLKL (full length)): < 0.01 µM
- Kd (RIP3): > 30 µM

Structure (SMILES): N#Cc1cccc(Nc2[nH]nc(-c3ccc(NS(=O)(=O)CC(F)(F)F)cc3)c2C(N)=O)n1 [Compound 237, 5-[(6-cyanopyridin-2-yl)amino]-3-[4-(2,2,2-trifluoroethanesulfonamido)phenyl]-1H-pyrazole-4-carboxamide]
- Kd (RIP1): > 30 µM
- Kd (MLKL (full length)): < 0.01 µM
- Kd (RIP3): > 30 µM

Structure (SMILES): NC(=O)c1c(-c2ccc(NS(=O)(=O)CC(F)(F)F)c(OCc3ccc(F)cc3)c2)n[nH]c1Nc1ccccn1 [Compound 239, 3-{3-[(4-fluorophenyl)methoxy]-4-(2,2,2-trifluoroethanesulfonamido)phenyl}-5-[(pyridin-2-yl)amino]-1H-pyrazole-4-carboxamide]
- Kd (RIP1): > 30 µM
- Kd (MLKL (full length)): < 0.01 µM
- Kd (RIP3): > 30 µM

Structure (SMILES): NC(=O)c1c(-c2ccc(NS(=O)(=O)CC(F)(F)F)c(OCc3ccc(F)cn3)c2)n[nH]c1Nc1ccccn1 [Compound 240, 3-{3-[(5-fluoropyridin-2-yl)methoxy]-4-(2,2,2-trifluoroethanesulfonamido)phenyl}-5-[(pyridin-2-yl)amino]-1H-pyrazole-4-carboxamide]
- Kd (RIP1): > 30 µM
- Kd (MLKL (full length)): < 0.01 µM
- Kd (RIP3): > 30 µM

Structure (SMILES): CCS(=O)(=O)Nc1ccc(-c2n[nH]c(Nc3ccccn3)c2C(N)=O)cc1OCc1ccc(F)cn1 [Compound 241, 3-{4-ethanesulfonamido-3-[(5-fluoropyridin-2-yl)methoxy]phenyl}-5-[(pyridin-2-yl)amino]-1H-pyrazole-4-carboxamide]
- Kd (RIP1): > 30 µM
- Kd (MLKL (full length)): < 0.01 µM
- Kd (RIP3): > 30 µM

Structure (SMILES): CCS(=O)(=O)Nc1ccc(-c2n[nH]c(Nc3cnccn3)c2C(N)=O)cc1OCc1ccc(Cl)cn1 [Compound 242, 3-{3-[(5-chloropyridin-2-yl)methoxy]-4-ethanesulfonamidophenyl}-5-[(pyrazin-2-yl)amino]-1H-pyrazole-4-carboxamide]
- Kd (RIP1): > 30 µM
- Kd (MLKL (full length)): < 0.01 µM
- Kd (RIP3): > 30 µM

Structure (SMILES): Cc1cnc(Nc2[nH]nc(-c3ccc(NS(=O)(=O)C(F)F)c(O[C@@H](C)c4ccc(F)cc4)c3)c2C(N)=O)cn1 [Compound 245, 3-[4-(difluoro-methanesulfon-amido)-3-[(1S)-1-(4-fluorophenyl)ethoxy]phenyl]-5-[(5-methylpyrazin-2-yl)amino]-1H-pyrazole-4-carboxamide]
- Kd (RIP1): > 30 µM
- Kd (MLKL (full length)): < 0.01 µM
- Kd (RIP3): > 30 µM

Structure (SMILES): NC(=O)c1c(-c2ccc(NS(=O)(=O)C(F)F)c(OCc3ccc(F)cc3)c2)n[nH]c1Nc1cnc(C(F)(F)F)cn1 [Compound 246, 3-[4-(difluoromethanesulfonamido)-3-[(4-fluorophenyl)methoxy]phenyl]-5-{[5-(trifluoromethyl)pyrazin-2-yl]amino}-1H-pyrazole-4-carboxamide]
- Kd (RIP1): > 30 µM
- Kd (MLKL (full length)): < 0.01 µM
- Kd (RIP3): > 30 µM

Structure (SMILES): C[C@H](Oc1cc(-c2n[nH]c(Nc3cccc(C(F)(F)F)n3)c2C(N)=O)ccc1NS(=O)(=O)CC(F)(F)F)c1ccc(F)cc1 [Compound 249, 3-{3-[(1S)-1-(4-fluorophenyl)ethoxy]-4-(2,2,2-trifluoroethane-sulfonamido)phenyl}-5-{[6-(trifluoromethyl)pyridin-2-yl]amino}-1H-pyrazole-4-carboxamide]
- Kd (RIP1): > 30 µM
- Kd (MLKL (full length)): < 0.01 µM
- Kd (RIP3): > 30 µM

Structure (SMILES): C[C@H](Oc1cc(-c2n[nH]c(Nc3cnccn3)c2C(N)=O)ccc1NS(=O)(=O)C(F)F)c1ccc(Cl)cc1 [Compound 252, 3-{3-[(1S)-1-(4-chlorophenyl)ethoxy]-4-(difluoromethanesulfonamido)phenyl}-5-[(pyrazin-2-yl)amino]-1H-pyrazole-4-carboxamide]
- Kd (RIP1): > 30 µM
- Kd (MLKL (full length)): < 0.01 µM
- Kd (RIP3): > 30 µM
